Data as given in patent publication US20220324835A1 (Nurix Therapeutics, Inc., priority 2018, published 2022).

Legend:
Cbl-b [1] = target: T1, Cbl-b (Homo sapiens, UniProt Q13191); experiment: Cbl-b inhibition assay (Cbl-b activity assay, FRET, Biological Example 1; 100 mM NaCl, 60 nM Src kinase); type: biochemical; conditions: upper bound stated in text lists; read-out: IC50 values in the Cbl-b inhibition assay of Biological Example 1
In short: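 Here, the E2 UbcH5B, irreversibly linked to Bodipy-fluorescein ubiquitin, binds Cbl-b once Src kinase phosphorylates it; Cbl-b carries an N-terminal biotinylated Avi-tag captured by streptavidin-terbium. An absent FRET signal indicates inhibition.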

T-cell [2] = experiment: CD25 cell surface staining on T-cells stimulated with anti-CD3 antibody alone (Biological Example 2); type: cell-based, human; conditions: for CD25 staining, Anti-CD3 stimulation, fold change over baseline: baseline = anti-CD3/anti-CD28 stimulated cells without inhibitor; for fold induction at 1 µM / fold induction at 8 µM: T-cell, read-out: CD25 staining Anti-CD3 stimulation; for fold induction at 1 µM: 1 μM Cbl-b inhibitor; for fold induction at 8 µM: 8 μM Cbl-b inhibitor
Excerpt: (§1) Methods for experimentally determining increased T-cell activation, increased T-cell proliferation, decreased T-cell exhaustion, and/or decreased T-cell tolerance are well known in the art.
(§2) Modulation of activity of an immune cell, such as a T-cell, a B cell or a NK cell can be measured by determining a baseline value for a parameter of interest (e.g., cytokine secretion). […] A reference value then is obtained for T-cell activation after contacting or administering said Cbl-b inhibitor. The reference value is compared to the baseline value in order to determine the amount of T-cell activation due to contact or administration of the Cbl-b inhibitor or composition thereof. […] Immune cell activation can be assessed by measuring biological markers of activation such as increased cytokine secretion, increased cell surface expression of activation markers (e.g., cell surface markers), or increased phosphorylation of proteins in a downstream signaling pathway. The fold over baseline value that indicates immune cell activation can be determined for the parameter being tested and the conditions under which the immune cell were treated. For example, for measuring T-cell activation, a baseline value can be obtained from T-cells stimulated with anti-CD3 antibody in combination with anti-CD28 antibody, wherein the cells are not incubated with a Cbl-b inhibitor. […] A positive response for immune cell activation can then be determined by the obtained reference value.
(§3) In some embodiments, a baseline value can be obtained from T-cells stimulated with anti-CD3 antibody alone, wherein the cells are not incubated with a Cbl-b inhibitor. In some embodiments, a positive response for T-cell activation as measured by cytokine secretion (e.g., IL-2 secretion) by T-cells stimulated with anti-CD3 antibody alone in the presence of a Cbl-b inhibitor is at least 0.1-fold over the baseline value for cytokine secretion (e.g., IL-2 secretion) obtained from T-cells stimulated with anti-CD3 antibody alone in the absence of a Cbl-b inhibitor. In some embodiments, a positive response for T-cell activation as measured by surface marker expression (e.g., CD25 surface marker staining) by T-cells stimulated with anti-CD3 antibody alone in the presence of a Cbl-b inhibitor is at least 0.6-fold over the baseline value for surface marker expression (e.g., CD25 surface marker staining) obtained from T-cells stimulated with anti-CD3 antibody alone in the absence of a Cbl-b inhibitor.

T-cell [3] = experiment: IL-2 secretion from T-cells co-stimulated with anti-CD3 and anti-CD28 antibody (Biological Example 2); type: cell-based, human; conditions: for IL-2 secretion, Anti-CD3/Anti-CD28 stimulation, fold change over baseline: baseline = anti-CD3/anti-CD28 stimulated cells without inhibitor; for fold induction at 0.3 µM / fold induction at 1 µM / fold induction at 4 µM: Homo sapiens, T-cell, read-out: IL-2 secretion Anti-CD3/Anti-CD28 stimulation; for fold induction at 0.3 µM: 0.3 μM Cbl-b inhibitor; for fold induction at 1 µM: 1 μM Cbl-b inhibitor; for fold induction at 4 µM: 4 μM Cbl-b inhibitor
Excerpt: as §1
as §2, with “value. […]” for “value.”

T-cell [4] = experiment: CD25 cell surface staining on T-cells co-stimulated with anti-CD3 and anti-CD28 antibody (Biological Example 2); type: cell-based, human; conditions: for CD25 staining, Anti-CD3/Anti-CD28 stimulation, fold change over baseline: baseline = anti-CD3/anti-CD28 stimulated cells without inhibitor; for fold induction at 0.3 µM / fold induction at 1 µM / fold induction at 4 µM: Homo sapiens, T-cell, read-out: CD25 staining Anti-CD3/Anti-CD28 stimulation; for fold induction at 0.3 µM: 0.3 μM Cbl-b inhibitor; for fold induction at 1 µM: 1 μM Cbl-b inhibitor; for fold induction at 4 µM: 4 μM Cbl-b inhibitor
Excerpt: as §1
as §2, with “value. […]” for “value.”

Cbl-b [5] = target: T1, Cbl-b; experiment: Cbl-b activity assay (Cbl-b inhibition assay), TR-FRET of Cbl-b interaction with UbcH5B-Ub; type: biochemical
In short: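 TR-FRET readout of Cbl-b binding to Bodipy-fluorescein N-terminally labeled Ub conjugated to UbcH5B C85K, measured with compound present. After compound incubation, 60 nM Src kinase with 1 mM ATP and 5 mM MgCl2 (final) was added for 1.5 h, then a further 1 h incubation; asterisked values used 50 mM NaCl buffer and 30 nM Src.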

T-cell [6] = experiment: IL-2 secretion from T-cells stimulated with anti-CD3 antibody alone (Biological Example 2); type: cell-based, human; conditions: for fold induction at 1 µM / fold induction at 8 µM: T-cell, read-out: IL-2 secretion Anti-CD3 stimulation; for fold induction at 1 µM: 1 μM Cbl-b inhibitor; for fold induction at 8 µM: 8 μM Cbl-b inhibitor
Excerpt: as §1, §2, §3

[7] = 1 μM compound, primary human total T-cells
[8] = 8 μM compound, primary human total T-cells
[9] = 0.3 μM compound, primary human total T-cells
[10] = 4 μM compound, primary human total T-cells
[11] = assay buffer with 100 mM NaCl, 60 nM Src kinase, read-out: Cbl-b activity IC50
[12] = Homo sapiens, fold change over baseline (anti-CD3/anti-CD28 stimulated T-cells without inhibitor)
[13] = fold change over baseline (anti-CD3/anti-CD28 stimulated T-cells without inhibitor)
[14] = fold change over baseline, primary human total T-cells
[15] = * assay buffer containing 50 mM NaCl instead of 100 mM NaCl and 30 nM Src kinase instead of 60 nM, read-out: Cbl-b activity IC50 (μM)*

T1 sequence (Q13191 36-427): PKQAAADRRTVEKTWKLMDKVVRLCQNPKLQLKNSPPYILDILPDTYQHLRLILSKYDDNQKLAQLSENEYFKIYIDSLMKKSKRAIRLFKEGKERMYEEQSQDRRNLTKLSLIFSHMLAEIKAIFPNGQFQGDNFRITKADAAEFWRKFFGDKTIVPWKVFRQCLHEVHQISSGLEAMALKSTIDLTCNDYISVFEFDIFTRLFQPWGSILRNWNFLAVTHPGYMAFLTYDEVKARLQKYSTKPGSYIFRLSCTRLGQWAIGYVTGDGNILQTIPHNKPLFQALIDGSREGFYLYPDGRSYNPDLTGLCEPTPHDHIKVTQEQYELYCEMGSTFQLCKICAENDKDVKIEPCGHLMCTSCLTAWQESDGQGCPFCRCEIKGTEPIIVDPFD

Structure (SMILES) | IC50 (Cbl-b [1]) [nM] | IC50 (Cbl-b [5]; [11]) [µM] | fold induction at 1 µM (T-cell [2]; [14]) | fold induction at 8 µM (T-cell [2]; [14]) | fold induction at 0.3 µM (T-cell [3]; [14]) | fold induction at 1 µM (T-cell [3]; [14]) | fold induction at 4 µM (T-cell [3]; [14]) | fold induction at 0.3 µM (T-cell [4]; [14]) | fold induction at 1 µM (T-cell [4]; [14]) | fold induction at 4 µM (T-cell [4]; [14]) | IC50 (Cbl-b [5]; [15]) [µM] | fold induction at 1 µM (T-cell [6]; [14]) | fold induction at 8 µM (T-cell [6]; [14]) | further results
Cn1cnnc1[C@@H](F)[C@](C)(F)c1cccc(N2Cc3c(cccc3C(F)(F)F)C2=O)c1 (stereo in doubt) [Compound 480, 2-(3-((1R,2R)-1,2-difluoro-1-(4-methyl-4H-1,2,4-triazol-3-yl)propan-2-yl)phenyl)-4-(trifluoromethyl)isoindolin-1-one] | ≤ 300 | 0.1 to 0.3 |  |  |  |  |  |  |  |  |  |  |  | CD25 staining, Anti-CD3 stimulation, fold change over baseline (T-cell [2]; [7]): D (D indicates ≤0.600 fold); CD25 staining, Anti-CD3 stimulation, fold change over baseline (T-cell [2]; [8]): C (C indicates 0.601<0.800 fold); IL-2 secretion, Anti-CD3/Anti-CD28 stimulation, fold change over baseline (T-cell [3]; [9]): D (D indicates 1.01-2.50 fold); IL-2 secretion, Anti-CD3/Anti-CD28 stimulation, fold change over baseline (T-cell [3]; [7]): D (D indicates 1.01-2.50 fold); IL-2 secretion, Anti-CD3/Anti-CD28 stimulation, fold change over baseline (T-cell [3]; [10]): D (D indicates 1.01-2.50 fold); CD25 staining, Anti-CD3/Anti-CD28 stimulation, fold change over baseline (T-cell [4]; [9]): D (D indicates 1.01-1.30 fold); CD25 staining, Anti-CD3/Anti-CD28 stimulation, fold change over baseline (T-cell [4]; [7]): D (D indicates 1.01-1.30 fold); CD25 staining, Anti-CD3/Anti-CD28 stimulation, fold change over baseline (T-cell [4]; [10]): D (D indicates 1.01-1.30 fold); IL-2 secretion, Anti-CD3 stimulation, fold change over baseline (T-cell [6]; [7]): E (E indicates ≤0.050 fold); IL-2 secretion, Anti-CD3 stimulation, fold change over baseline (T-cell [6]; [8]): D (D indicates 0.051-0.1 fold)
CC(c1cc(C(=O)Nc2cccc(C3(Cc4nncn4C)COC3)c2)nc(C2CC2)n1)N1CCC2(CC2)C1 (stereo in doubt) [Example 592a, (R)-6-(1-(5-azaspiro[2.4]heptan-5-yl)ethyl)-2-cyclopropyl-N-(3-(3-((4-methyl-4H-1,2,4-triazol-3-yl)methyl)oxetan-3-yl)phenyl)pyrimidine-4-carboxamide] | ≤ 100 | < 0.1 |  |  |  |  |  |  |  |  |  |  |  | fold induction at 1 µM (T-cell [2]; [12]): > 1; fold induction at 0.3 µM (T-cell [3]; [13]): 5 to 7.5; fold induction at 1 µM (T-cell [3]; [13]): > 7.5; fold induction at 0.3 µM (T-cell [4]; [13]): 1.01 to 1.3; fold induction at 1 µM (T-cell [4]; [13]): 1.01 to 1.3; fold induction at 1 µM (T-cell [6]; [12]): > 0.201
COc1cccc(C(=O)Nc2cccc([C@H](C)Sc3nncn3C)c2)n1 [Compound 38, (S)-6-Methoxy-N-(3-(1-((4-methyl-4H-1,2,4-triazol-3-yl)thio)ethyl)phenyl)picolinamide] | ≤ 1000 | 0.301 to 1 | < 0.6 | 0.601 to 0.8 | 1.01 to 2.5 | 1.01 to 2.5 | 2.51 to 5 | < 1 | < 1 | 1.31 to 1.5 | 0.301 to 1 | 0.101 to 0.15 | 0.151 to 0.2 | 
Cc1nc(C(=O)Nc2cccc([C@H](C)Sc3nncn3C)c2)ccc1Cl [Compound 39, (S)-5-Chloro-6-methyl-N-(3-(1-((4-methyl-4H-1,2,4-triazol-3-yl)thio)ethyl)phenyl)picolinamide] | ≤ 500 | 0.1 to 0.3 | < 0.6 | 0.801 to 1 | 2.51 to 5 | 5 to 7.5 | > 7.5 | < 1 | 1.01 to 1.3 | 1.01 to 1.3 | 0.301 to 1 | < 0.05 | 0.051 to 0.1 | 
C[C@H](Sc1nncn1C)c1cccc(NC(=O)c2cc(C3(O)COC3)cc(C(F)(F)F)n2)c1 [Compound 84, (S)-4-(3-hydroxyoxetan-3-yl)-N-(3-(1-((4-methyl-4H-1,2,4-triazol-3-yl)thio)ethyl)phenyl)-6-(trifluoromethyl)picolinamide] | ≤ 1000 | 0.301 to 1 | < 0.6 | 0.601 to 0.8 | < 1 | < 1 | < 1 | < 1 | 1.01 to 1.3 | 1.01 to 1.3 |  | < 0.05 | < 0.05 | 
